Experimental data published in the NIST ThermoML archive (doi:10.1016/j.jct.2018.04.001).

Conditions: Liquid, Vibrating wire viscometry

FC(F)(F)/C=C/Cl [(E)-1-chloro-3,3,3-trifluoroprop-1-ene]
Conditions	viscosity [mPa·s]
243.14 K, 5000 kPa	0.5536
243.15 K, 200 kPa	0.5325
243.15 K, 1000 kPa	0.542
243.15 K, 10000 kPa	0.5859
243.15 K, 20000 kPa	0.6281
243.15 K, 30000 kPa	0.6899
243.15 K, 40000 kPa	0.7324
253.14 K, 20000 kPa	0.5583
253.15 K, 200 kPa	0.4733
253.15 K, 1000 kPa	0.4782
253.15 K, 5000 kPa	0.4887
253.15 K, 10000 kPa	0.5179
253.15 K, 30000 kPa	0.6008
253.15 K, 40000 kPa	0.6521
263.14 K, 200 kPa	0.4168
263.15 K, 1000 kPa	0.4194
263.15 K, 5000 kPa	0.433
263.15 K, 10000 kPa	0.455
263.15 K, 20000 kPa	0.4998
263.15 K, 30000 kPa	0.539
263.16 K, 40000 kPa	0.5767
273.14 K, 30000 kPa	0.4792
273.15 K, 200 kPa	0.3733
273.15 K, 1000 kPa	0.3741
273.15 K, 5000 kPa	0.3892
273.15 K, 10000 kPa	0.4091
273.15 K, 20000 kPa	0.4448
273.15 K, 40000 kPa	0.5197
283.14 K, 200 kPa	0.3347
283.14 K, 10000 kPa	0.3688
283.15 K, 1000 kPa	0.3363
283.15 K, 5000 kPa	0.351
283.15 K, 20000 kPa	0.4033
283.15 K, 30000 kPa	0.4368
283.15 K, 40000 kPa	0.4708
293.14 K, 20000 kPa	0.3656
293.14 K, 40000 kPa	0.428
293.15 K, 200 kPa	0.3004
293.15 K, 1000 kPa	0.3033
293.15 K, 5000 kPa	0.316
293.15 K, 10000 kPa	0.3332
293.15 K, 30000 kPa	0.3971
303.15 K, 200 kPa	0.2719
303.15 K, 1000 kPa	0.2743
303.15 K, 5000 kPa	0.2874
303.15 K, 10000 kPa	0.3033
303.15 K, 20000 kPa	0.3337
303.15 K, 30000 kPa	0.3635
303.16 K, 40000 kPa	0.393
313.15 K, 300 kPa	0.2464
313.15 K, 10000 kPa	0.2767
313.15 K, 20000 kPa	0.3058
313.15 K, 30000 kPa	0.3337
313.15 K, 40000 kPa	0.3611
313.16 K, 1000 kPa	0.2489
313.16 K, 5000 kPa	0.2611
323.14 K, 40000 kPa	0.3345
323.15 K, 400 kPa	0.2243
323.15 K, 1000 kPa	0.2267
323.15 K, 5000 kPa	0.2393
323.15 K, 10000 kPa	0.254
323.15 K, 20000 kPa	0.2819
323.15 K, 30000 kPa	0.3084
333.15 K, 500 kPa	0.2047
333.15 K, 1000 kPa	0.2069
333.15 K, 5000 kPa	0.2192
333.15 K, 10000 kPa	0.2344
333.15 K, 20000 kPa	0.262
333.15 K, 30000 kPa	0.2888
333.15 K, 40000 kPa	0.3147
343.14 K, 30000 kPa	0.2702
343.14 K, 40000 kPa	0.2946
343.15 K, 600 kPa	0.1887
343.15 K, 1000 kPa	0.1903
343.15 K, 5000 kPa	0.2029
343.15 K, 10000 kPa	0.2179
343.15 K, 20000 kPa	0.245
353.14 K, 10000 kPa	0.1999
353.14 K, 30000 kPa	0.2503
353.15 K, 5000 kPa	0.1846
353.15 K, 20000 kPa	0.2277
353.15 K, 40000 kPa	0.2733
363.15 K, 5010 kPa	0.1701
363.15 K, 10000 kPa	0.1845
363.15 K, 20000 kPa	0.2107
363.15 K, 40000 kPa	0.257
363.16 K, 30000 kPa	0.2345
373.14 K, 40000 kPa	0.2449
373.15 K, 5000 kPa	0.1581
373.15 K, 10000 kPa	0.1734
373.15 K, 20000 kPa	0.1996
373.15 K, 30000 kPa	0.2229
